Laboratory results reported in US8618095B2 (Rigel Pharmaceuticals, Inc., priority 2010, dated 2013).

Each compound was assayed on Human mast cells (CHMC) (assay: LD Tryptase release assay in CHMC (mast cell activation induced by FcγR cross-linking)). Conditions: Homo sapiens, Mast cell, anti-IgG stimulation, activity of tryptase released upon degranulation.
Assay type: cell-based
How it was run: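 Mast cells derived from CD38-negative progenitors were preincubated 1 h at 37 °C with compound in HEPES-buffered saline (pH 7.4, 0.1% BSA, compound diluted in buffer with 2% MeOH/1% DMSO). Cells were then stimulated 60 min with anti-human IgG (final 1 μg/mL). Released tryptase was measured on Z-Ala-Lys-Arg-AMC (30 min, room temperature, 355/460 nm) to give the IC50.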

Row | Structure (SMILES) | IC50
1 | Cc1cc(Nc2ncc(F)c(Nc3ccc4c(n3)NC(=O)C(C)(C)O4)n2)ccc1N1CCC2(CCOC2)CC1 [Compound 159, N4-(2,2-dimethyl-3,4-dihydro-3-oxo-2H-pyrido[3,2-b][1,4]oxazin-6-yl)-5-fluoro-N2-[3-methyl-4-(2-oxa-8-azaspiro[4.5]decan-8-yl)phenyl]-2,4-pyrimidinediamine] | 500 to 1000 nM
2 | C[C@H]1CN(c2ccc(Nc3ncc(F)c(Nc4ccc5c(n4)NC(=O)C(C)(C)O5)n3)cc2)CCO1 [Compound 79, N4-(2,2-dimethyl-3,4-dihydro-3-oxo-2H-pyrido[3,2-b][1,4]oxazin-6-yl)-5-fluoro-N2-1-2,4-pyrimidinediamine] | 100 to 500 nM
3 | CCN(CC)C1CCN(c2ccc(Nc3ncc(F)c(Nc4ccc5c(n4)NC(=O)C(C)(C)O5)n3)cn2)CC1 [Compound 61, N4-(2,2-dimethyl-3,4-dihydro-3-oxo-2H-pyrido[3,2-b][1,4]oxazin-6-yl)-5-fluoro-N2-[6-(4-(diethylamino)piperidin-1-yl)pyridin-3-yl]-2,4-pyrimidinediamine] | 100 to 500 nM
4 | COC1CCN(c2ccc(Nc3ncc(F)c(Nc4ccc5c(n4)NC(=O)C(C)(C)O5)n3)cc2)CC1 [Compound 152, N4-(2,2-dimethyl-3,4-dihydro-3-oxo-2H-pyrido[3,2-b][1,4]oxazin-6-yl)-5-fluoro-N2-[4-(4-methoxypiperidin-1-yl)phenyl]-2,4-pyrimidinediamine] | < 100 nM
5 | CC(C)Oc1cc(Nc2ncc(F)c(Nc3ccc4c(n3)NC(=O)C(C)(C)O4)n2)ccc1N1CCOCC1 [Compound 45, N4-(2,2-dimethyl-3,4-dihydro-3-oxo-2H-pyrido[3,2-b][1,4]oxazin-6-yl)-5-fluoro-N2-[3-(2-propoxy)-4-morpholinophenyl]-2,4-pyrimidinediamine] | 1000 to 100000 nM
6 | [2H]C1([2H])OC([2H])([2H])C([2H])([2H])N(c2ccc(Nc3ncc(F)c(Nc4ccc5c(n4)NC(=O)CO5)n3)cn2)C1([2H])[2H] [Compound 106, N4-(3,4-dihydro-3-oxo-2H-pyrido[3,2-b][1,4]oxazin-6-yl)-5-fluoro-N2-[6-(2,2,3,3,5,5,6,6-d8-morpholino)pyridin-3-yl]-2,4-pyrimidinediamine] | < 100 nM
7 | COCCN(C)c1ccc(Nc2ncc(F)c(Nc3ccc4c(n3)NC(=O)CO4)n2)cn1 [Compound 98] | 500 to 1000 nM

More lines, now with the values ahead:

Row | IC50 | Structure (SMILES)
8 | 100 to 500 nM | CC1(C)CN(c2ccc(Nc3ncc(F)c(Nc4ccc5c(n4)NC(=O)CO5)n3)cn2)CCO1 [Compound 9, N4-(3,4-dihydro-3-oxo-2H-pyrido[3,2-b][1,4]oxazin-6-yl)-5-fluoro-N2-[6-(2,2-dimethylmorpholino)pyridin-3-yl]-2,4-pyrimidinediamine]
9 | 500 to 1000 nM | CCN(CC)C1CCN(c2ccc(Nc3ncc(F)c(Nc4ccc5c(n4)NC(=O)C(C)(C)O5)n3)cn2)C1 (stereo not shown) [Compound 66, N4-(2,2-dimethyl-3,4-dihydro-3-oxo-2H-pyrido[3,2-b][1,4]oxazin-6-yl)-5-fluoro-N2-[6-(3-(diethylamino)pyrrolidin-1-yl)pyridin-3-yl]-2,4-pyrimidinediamine]
10 | 100 to 500 nM | CO[C@@H]1CCN(c2ccc(Nc3ncc(F)c(Nc4ccc5c(n4)NC(=O)C(C)(C)O5)n3)cn2)C1 [Compound 65, N4-(2,2-dimethyl-3,4-dihydro-3-oxo-2H-pyrido[3,2-b][1,4]oxazin-6-yl)-5-fluoro-N2-[6-((3R)-3-methoxypyrrolidin-1-yl)pyridin-3-yl]-2,4-pyrimidinediamine]
11 | 100 to 500 nM | CC1(C)Oc2ccc(Nc3nc(Nc4ccc(N5CCOCC5=O)cc4)ncc3F)nc2NC1=O [Compound 40, N4-(2,2-dimethyl-3,4-dihydro-3-oxo-2H-pyrido[3,2-b][1,4]oxazin-6-yl)-5-fluoro-N2-[4-(morpholin-2-one)phenyl]-2,4-pyrimidinediamine]
12 | 100 to 500 nM | CC1(C)Oc2ccc(Nc3nc(Nc4ccc(N5CCOC5=O)nc4)ncc3F)nc2NC1=O [Compound 72, N4-(2,2-dimethyl-3,4-dihydro-3-oxo-2H-pyrido[3,2-b][1,4]oxazin-6-yl)-5-fluoro-N2-[6-(2-oxooxazolidin-3-yl)pyridin-3-yl]-2,4-pyrimidinediamine]
13 | 100 to 500 nM | CC1(C)CN(c2ccc(Nc3ncc(F)c(Nc4ccc5c(n4)NC(=O)C(C)(C)O5)n3)cn2)CCO1 [Compound 8, N4-(2,2-dimethyl-3,4-dihydro-3-oxo-2H-pyrido[3,2-b][1,4]oxazin-6-yl)-5-fluoro-N2-[6-(2,2-dimethylmorpholino)pyridin-3-yl]-2,4-pyrimidinediamine]
